Here are results for one substance from patent publication US20130266557A1, “METHODS FOR TREATMENT OF A SARCOMA USING AN EPIMETABOLIC SHIFTER (COENZYME Q10)” (priority 2009, published 2013).

Test [1] deals with normal fibroblast. Kind of test: Bcl2 level on co-administration with VEGF. In kind it is cell-based. The conditions noted are these: co-administration of CoQ-10 and VEFG. An excerpt: The term “Multidimensional Intracellular Molecule (MIM)”, is an isolated version or synthetically produced version of an endogenous molecule that is naturally produced by the body and/or is present in at least one cell of a human. A MIM is capable of entering a cell and the entry into the cell includes complete or partial entry into the cell as long as the biologically active portion of the molecule wholly enters the cell. MIMs are capable of inducing a signal transduction and/or gene expression mechanism within a cell. MIMs are multidimensional because the molecules have both a therapeutic and a carrier, e.g., drug delivery, effect. MIMs also are multidimensional because the molecules act one way in a disease state and a different way in a normal state.

Test [2] has as its system NCIES0808 cells. Nature of the test: Antibody microarray analysis of protein levels. The class given is cell-based, human. How it is done: NCIES0808 cells were received from SBH in T165 flasks (×55). […] The cell morphology was examined closely under a microscope and the cells were noted to appear healthy with no visual signs of contamination or intracellular inclusions.
A 500 μM Q10 stock was made using the same protocol outlined for the PCR arrays. The media was exchanged in every flask with 50 μM and 100 μM Q10 media being placed into the appropriate flasks. The cells were incubated for 3 hr and 6 hr in the Q10 formulated media and the cells were harvested. Each flask was washed with 10 ml of ice cold PBS and trypsinized with 5 ml of trypsin-EDTA. The cells were harvested by gentle pipetting and the enzyme action was stopped by addition of 30 ml complete media. The cells were centrifuged at 1200 rpm for 5 minutes and media was aspirated from the tube leaving behind the cell pellet for protein extraction.
The proteins were extracted from the cells as per page 2; sub-category IA; of the manufacture's Product Information Sheet, Sigma®, Panarama® Antibody Microarray EPRESS Profiler725, cat#: XP725. The protein material from the whole cell lysates was conjugated with Cy3 and Cy5 dyes, GE Healthcare, product #: 25-8009-86 Cy3 and 25-8009-87 Cy5 as per the manufacturer's instructions outlined in the above mentioned product sheet sub-category IIA. […] The arrays were analyzed using a Fuji FLA-5100 UV scanner at the 532 nm for the Cy3 dye and 635 nm for the Cy5 dye. […]
The evaluation of changes in protein concentration due to the presence of Q10 was evaluated through the utilization of antibody microarray methods. […]
Once data sets were collected for all arrays, the data was scrutinized against three major parameters. […] An evaluation of the positive and negative Cy3/Cy5 data (included as controls on the chip) and a visual inspection of the spectral density for a given spot it was determined that and array data point with a spectral density less than 10 was approaching the background level and deemed statistically irrelevant and removed from the data series. […]

Test [3] has as its target mitochondrial complex II (Homo sapiens, UniProt O14521+P21912+Q99643). The conditions noted are these: cancer cells; Mazzio and Soliman 2004; cited from earlier work.
Test [4] concerns cancer. To be noted: Mazzio 2006; cited from earlier work.
In test [5] the test system is Ewing JDT cell line. Nature of the test: Protein expression in Ewing JDT cell line. The class given is cell-based.

Sequence of mitochondrial complex II (P31040 43-664 partner): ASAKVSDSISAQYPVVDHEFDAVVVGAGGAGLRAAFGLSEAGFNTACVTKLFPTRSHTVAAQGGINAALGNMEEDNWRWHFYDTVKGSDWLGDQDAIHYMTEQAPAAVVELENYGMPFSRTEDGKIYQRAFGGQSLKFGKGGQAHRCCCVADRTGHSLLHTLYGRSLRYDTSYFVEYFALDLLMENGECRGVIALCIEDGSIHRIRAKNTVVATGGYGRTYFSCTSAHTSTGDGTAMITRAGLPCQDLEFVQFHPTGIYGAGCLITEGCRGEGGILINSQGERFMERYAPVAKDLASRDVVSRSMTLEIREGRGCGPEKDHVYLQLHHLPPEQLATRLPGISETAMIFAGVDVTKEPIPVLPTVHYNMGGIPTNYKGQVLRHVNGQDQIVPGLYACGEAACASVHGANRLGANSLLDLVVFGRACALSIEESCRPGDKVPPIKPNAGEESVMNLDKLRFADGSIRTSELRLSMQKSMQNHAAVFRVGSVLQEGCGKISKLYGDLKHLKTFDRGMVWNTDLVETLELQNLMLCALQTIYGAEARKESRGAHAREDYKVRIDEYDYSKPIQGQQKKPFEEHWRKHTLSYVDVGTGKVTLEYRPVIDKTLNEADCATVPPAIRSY
Sequence of mitochondrial complex II (P21912 29-280): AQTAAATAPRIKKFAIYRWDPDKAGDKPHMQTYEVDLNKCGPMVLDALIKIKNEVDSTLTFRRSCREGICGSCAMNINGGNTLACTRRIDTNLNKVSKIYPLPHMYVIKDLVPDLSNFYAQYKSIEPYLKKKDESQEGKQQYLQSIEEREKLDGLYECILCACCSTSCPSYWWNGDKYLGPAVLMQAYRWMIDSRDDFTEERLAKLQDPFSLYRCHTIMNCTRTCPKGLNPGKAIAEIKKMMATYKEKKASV
Sequence of mitochondrial complex II (Q99643 30-169): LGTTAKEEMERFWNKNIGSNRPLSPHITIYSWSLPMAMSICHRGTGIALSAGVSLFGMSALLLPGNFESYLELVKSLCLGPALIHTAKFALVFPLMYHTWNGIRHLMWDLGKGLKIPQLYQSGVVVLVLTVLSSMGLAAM
Sequence of mitochondrial complex II (O14521 57-159): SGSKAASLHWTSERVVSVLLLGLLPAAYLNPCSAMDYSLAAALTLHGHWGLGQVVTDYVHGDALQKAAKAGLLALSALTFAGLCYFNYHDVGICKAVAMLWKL

In the case of Coenzyme Q10 [CoQ10], the “Level of Bcl2” value in test [1] is “no effect on the levels of Bcl2”. The “Expression of CBP/p300” value in test [2] (ES0808 cell line, compared to baseline) is “increase”. In addition, the “Decrease in expression (value = protein), discussion list” value in test [2] (NCIES 0808 cells in response to CoQ10) is “HDAC2 and HDAC4 and mTOR”. The FOXO1a expression result in test [2] (treatment with 100 μM CoQ10) is on record as “up regulated”. Besides, in test [3], the “Effect on Vmax of mitochondrial complex II activity” value is “increase the Vmax of mitochondrial complex II activity”. In addition, the Lethality against cancer result in test [4] is on record as “did not find CoQ10 to be as lethal as expected”. In addition, in test [5] (100 μM CoQ10, within one hour after exposure), the “increase in Caspase 3 expression” value came to 30%. Further, in test [5] (one hour after CoQ10 treatment), the “Caspase 3 expression” value was “significant increase”. The p53 expression entry in test [5] (one hour after treatment with CoQ10) is on record as “significant increase”.
